Data: patent publication US6492334B1, “Tri-compound analgesic for treating inflammation and pain” (priority 1999, dated 2002)

How the values were obtained:
diagnosed torn muscle = assay: Treatment of a subject with diagnosed torn muscle; assay type: in vivo, human; details: person; for side effect of the prescriptions: NAPROSYN and FLEXERIL prescribed together; for relief by the third day: NAPROSYN and FLEXERIL prescribed together with bed rest, ice packs, heat
Source text: The seventh subject was a person with a diagnosed torn muscle. Emergency Room treatment prescribed NAPROSYN (the trademark name for the drug naproxen sodium) an NSAID, and FLEXERIL(the trademark name for the drug cyclobenzaprene) a muscle relaxant. Also prescribed was bed rest and ice packs for the next 2 to 3 days. Heat was to be used by the second day to relieve spasm. […] This subject was given a protocol of 5 gram of ACI per dose, not the 3 gram ACI per dose as in the previous examples. This protocol was to be taken every hours 4 times per day.
In all examples mentioned there was no compounding of any pills and no placebos were given.

arthritis = details: as reported by the American Rheumatism Association; cited from earlier work

SMILES | side effect of the prescriptions (diagnosed torn muscle) | relief by the third day (diagnosed torn muscle) | effect on arthritis compared with placebo (arthritis)
CN(C)CCC=C1c2ccccc2C=Cc2ccccc21 [FLEXERIL, cyclobenzaprene] | made them drowsy | no relief | 
COc1ccc2c(c1)c(CC(=O)O)c(C)n2C(=O)c1ccc(Cl)cc1 [INDOCIN, indomethacin] |  |  | no more effect on arthritis than a placebo
COc1ccc2cc([C@H](C)C(=O)O)ccc2c1 [NAPROSYN, naproxen sodium] | made them drowsy | no relief | 
